Experimental data reported in US6893846B2, “Primers for use in detecting beta-lactamases” (priority 1998, dated 2005).
In brackets after ≈: the same amount, converted by molar mass. Like-named read-outs stand apart in the source and are kept apart here.

How the values were obtained:
K. pneumoniae 225 [1] = experiment: NCCLS microdilution susceptibility test; type: cell-based, Klebsiella pneumoniae; settings: Klebsiella pneumoniae, 225
[2] = target: beta-lactamases in sonic extracts of E. coli (Escherichia coli, UniProt P62593); experiment: Isoelectric focusing overlay: cefotaxime hydrolysis and inhibitors; settings: 0.75 μg/ml cefotaxime
[3] = test system: beta-lactamases in sonic extracts of E. coli; experiment: as above; settings: 0.75 μg/ml cefotaxime
K. pneumoniae 225 [4] = experiment: Three-dimensional test (enzymatic inactivation of antibiotics); settings: beta-lactamase-mediated hydrolysis by K. pneumoniae 225, lawn E. coli ATCC 25922
K. pneumoniae = experiment: Agar dilution MIC, South African isolates; type: cell-based, Klebsiella pneumoniae; settings: tzp with tazobactam 4 μg/ml
From the text: (§1) The strains were provided in response to a request for all strains of Enterobacteriaceae, lacking inducible beta-lactamases, that were intermediate or resistant to cefotaxime or ceftazidime. […]

[5] = test system: beta-lactamases in sonic extracts of K. pneumoniae; settings: 0.75 μg/ml cefotaxime
[6] = target: beta-lactamases in sonic extracts of K. pneumoniae (Escherichia coli, UniProt P62593); settings: 0.75 μg/ml cefotaxime
[7] = target: beta-lactamases in sonic extracts of K. pneumoniae (Klebsiella pneumoniae, UniProt P0AD64, E235K/G234S); settings: Kpn2, beta-lactamase pI 8.2 (SHV-5); 0.75 μg/ml cefotaxime
[8] = target: beta-lactamases in sonic extracts of K. pneumoniae (Klebsiella pneumoniae, UniProt P0AD64); settings: Kpn1, beta-lactamase pI 7.6 (SHV-1); 0.75 μg/ml cefotaxime
[9] = target: single beta-lactamase in K. pneumoniae cell extracts (Klebsiella pneumoniae, UniProt P0AD64, G234S); experiment: Spectrophotometric hydrolysis assay on crude beta-lactamase extracts; settings: K. pneumoniae Pit 100 extract, beta-lactamase pI 7.6; 100 μM substrate
[10] = target: single beta-lactamase in K. pneumoniae cell extracts (Klebsiella pneumoniae, UniProt P0AD64, E235K/G234S); experiment: as above; settings: K. pneumoniae Pit 82 extract, beta-lactamase pI 8.2; 100 μM substrate
[11] = target: single beta-lactamase in K. pneumoniae cell extracts (Escherichia coli, UniProt P62593, E102K/R162S); experiment: as above; settings: K. pneumoniae Pit 16 extract, beta-lactamase pI 5.6; 100 μM substrate
E. coli = experiment: Agar dilution MIC, South African isolates; type: cell-based, Escherichia coli; settings: tzp with tazobactam 4 μg/ml
From the text: as §1

E. aerogenes = type: cell-based, Enterobacter aerogenes
Procedure: Antibiotic susceptibilities were determined by standard disk-diffusion (NCCLS Standard M2-A6) and agar-dilution (NCCLS Standard M7-A4) procedures. Disks were obtained from Becton Dickinson Microbiology Systems (Cockeysville, Md.). […] Throughout this study, results were interpreted using NCCLS criteria for disk diffusion (NCCLS M2-A6) and broth dilution (NCCLS M7-A4).

[12] = target: single beta-lactamase in E. coli cell extracts (Escherichia coli, UniProt P62593, E102K/R162S); experiment: Spectrophotometric hydrolysis assay on crude beta-lactamase extracts; settings: E. coli Pit 64 extract, beta-lactamase pI 5.6; 100 μM substrate
[13] = test system: E. coli C600N transconjugants; experiment: Susceptibility of transconjugants; type: cell-based, Escherichia coli; settings: E. coli C600N transconjugants of E. aerogenes 187, 200, 220, 184
K. pneumoniae 225 [14] = settings: test drug disk around amoxicillin-clavulanate disk
K. pneumoniae 225 [15] = experiment: NCCLS disk diffusion assay; type: cell-based, Klebsiella pneumoniae; settings: disk diffusion, Kleb 225
[16] = test system: beta-lactamases in sonic extracts of E. aerogenes; experiment: Isoelectric focusing overlay: cefotaxime hydrolysis, inhibitors, induction; settings: 0.75 μg/ml cefotaxime

In the case of CO/N=C(\C(=O)N[C@@H]1C(=O)N2C(C(=O)O)=C(COC(C)=O)CS[C@H]12)c1csc(N)n1 [cefotaxime], the MIC (K. pneumoniae 225 [1]) is reported as 16 µg/mL (≈ 35.1 µM), the ctx hydrolysis ([2]; Ec1, beta-lactamase pI 5.4 (TEM-1)) is reported as “No” and the ctx hydrolysis ([2]; Ec2, beta-lactamase pI 5.4 (TEM-1)) is reported as “No”. For the same compound, the ctx hydrolysis ([3]; Ec1, beta-lactamase pI 5.6 (TEM-10 or 26)) was “Yes”, the ctx hydrolysis ([3]; Ec2, beta-lactamase pI 7.6 (SHV-2 or 8)) was “Yes” and the three dimensional test (K. pneumoniae 225 [4]) was “positive”. It also gave an MIC range (K. pneumoniae; resistance phenotype Kpn1, 8 strains) of 0.25 to 1 µg/mL, an MIC range (K. pneumoniae; resistance phenotype Kpn2, 28 strains) of 4 to 64 µg/mL and an MIC range (K. pneumoniae; resistance phenotype Kpn3 (K. pneumoniae Pit 68), 1 strain, listed as ctx) of 4 µg/mL. The ctx hydrolysis ([5]; Kpn1, beta-lactamase pI 5.6 (TEM-10 or 26)) was “Yes”, the ctx hydrolysis ([5]; Kpn2, beta-lactamase pI 7.6 (SHV-2 or 8)) was “Yes” and the ctx hydrolysis ([5]; Kpn3, beta-lactamase pI 8.0 (AmpC)) was “Yes”. For the same compound, the ctx hydrolysis ([6]; Kpn2, beta-lactamase pI 5.4 (TEM-1)) was “No”, the ctx hydrolysis ([6]; Kpn3, beta-lactamase pI 5.4 (TEM-1)) was “No” and the ctx hydrolysis [7] was “Yes”. The ctx hydrolysis [8] was “No”, the Hydrolysis [9] was 11 nmol of substrate hydrolyzed/m and the Hydrolysis [10] was 11 nmol of substrate hydrolyzed/m. For the same compound, the Hydrolysis [11] was 4 nmol of substrate hydrolyzed/m, the MIC range (E. coli; resistance phenotype Ec1, 3 strains) was 1 µg/mL and the MIC range (E. coli; resistance phenotype Ec2, 1 strain) was 16 µg/mL. For the same compound, the MIC range (E. aerogenes; 1 E. aerogenes strain with Bush group 1 and group 2be (SHV-3) enzymes) was 1 µg/mL (≈ 2.2 µM), the MIC range (E. aerogenes; 1 E. aerogenes strain with Bush group 1 and group 2be (SHV-5) enzymes) was 1 to 2 µg/mL and the MIC range (E. aerogenes; 29 E. aerogenes strains with Bush group 1 and group 2be (SHV-4) enzymes) was 1 to 2 µg/mL. The “susceptibility by MIC” value (E. aerogenes; all E. aerogenes strains) was “decreased susceptibility”, the Hydrolysis [12] was 1 nmol of substrate hydrolyzed/m and the “susceptibility after transfer of plasmids encoding SHV beta-lactamase genes” value [13] was “decreased susceptibility”. The “clavulanate double-disk potentiation test” value (K. pneumoniae 225 [14]) was “positive”, the “Zone Size” value (K. pneumoniae 225 [15]) was 15 mm and the “Ctx Hydrolysis” value ([16]; SHV-3 strain (1), Bush group 1 enzyme pI 8.3) was “no”. The “Ctx Hydrolysis” value ([16]; SHV-3 strain (1), Bush group 2be enzyme pI 6.9) was “yes”, the “Ctx Hydrolysis” value ([16]; SHV-4 strains (29), Bush group 1 enzyme pI 8.3) was “no” and the “Ctx Hydrolysis” value ([16]; SHV-4 strains (29), Bush group 2be enzyme pI 7.8) was “yes”. For the same compound, the “Ctx Hydrolysis” value ([16]; SHV-5 strain (1), Bush group 1 enzyme pI 8.3) was “no” and the “Ctx Hydrolysis” value ([16]; SHV-5 strain (1), Bush group 2Be enzyme pI 8.0) was “yes”.
